Assay results reported in ChEMBL document CHEMBL5465560, “Selectivity Literature for EUbOPEN Chemogenomic Library” (2024).
pIC50: −log10 of the molar value. Each block holds one compound with its values, some of them ahead of it.

Key:
[1] = biological target: Vascular endothelial growth factor receptor 1 (Homo sapiens) (UniProt P17948); assay: Selectivity interaction (Ambit KINOMEscan and KiNATiv profiling in Jurkat cells) EUB0000090b FLT1; format: cell-based; settings: at 1 µM
[2] = biological target: Eukaryotic translation initiation factor 2-alpha kinase 1 (Homo sapiens) (UniProt Q9BQI3); assay: Selectivity interaction (Ambit KINOMEscan and KiNATiv profiling in Jurkat cells) EUB0000090b EIF2AK1; format: cell-based; settings: at 1 µM
[3] = biological target: T1, Receptor-interacting serine/threonine-protein kinase 1 (Homo sapiens) (UniProt Q13546); assay: Selectivity interaction (KinomeScan (DiscoverX)) EUB0000607a RIPK1; settings: at 10 µM
T1 sequence (whole entry): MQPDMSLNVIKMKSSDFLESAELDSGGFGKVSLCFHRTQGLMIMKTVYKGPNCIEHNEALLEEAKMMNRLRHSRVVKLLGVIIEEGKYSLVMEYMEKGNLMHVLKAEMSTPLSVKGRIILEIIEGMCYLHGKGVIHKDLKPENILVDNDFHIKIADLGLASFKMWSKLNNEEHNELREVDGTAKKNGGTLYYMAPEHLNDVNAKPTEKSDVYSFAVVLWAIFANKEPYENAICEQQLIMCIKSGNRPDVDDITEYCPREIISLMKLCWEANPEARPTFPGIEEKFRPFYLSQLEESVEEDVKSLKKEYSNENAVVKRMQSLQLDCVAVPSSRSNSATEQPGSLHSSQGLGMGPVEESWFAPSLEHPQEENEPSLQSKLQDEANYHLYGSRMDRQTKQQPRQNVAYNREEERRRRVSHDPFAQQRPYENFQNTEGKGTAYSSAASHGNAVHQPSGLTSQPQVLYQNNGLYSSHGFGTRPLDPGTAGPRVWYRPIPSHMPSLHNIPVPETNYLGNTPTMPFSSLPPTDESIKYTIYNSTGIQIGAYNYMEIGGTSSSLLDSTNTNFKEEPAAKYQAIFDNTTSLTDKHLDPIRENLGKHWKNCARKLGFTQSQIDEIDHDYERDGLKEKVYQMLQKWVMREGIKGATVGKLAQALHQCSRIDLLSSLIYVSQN

[4] = biological target: Protein arginine N-methyltransferase 5 (Homo sapiens, UniProt O14744); settings: at 10 µM
[5] = biological target: eIF-2-alpha kinase GCN2 (Homo sapiens) (UniProt Q9P2K8); assay: Selectivity interaction (ActivX KiNativ screen (kinase selectivity in THP-1 cell lysates)) EUB0000639a EIF2AK4; format: subcellular; settings: lysate, at 0.01 µM
Activated CDC42 kinase 1 = Activated CDC42 kinase 1 (Homo sapiens, UniProt Q07912)
[6] = biological target: Ribosomal protein S6 kinase alpha-6 (Homo sapiens, UniProt Q9UK32); assay: Selectivity interaction (KinomeScan (DiscoverX)) EUB0000229b RPS6KA6; settings: at 10 µM
[7] = biological target: RAF proto-oncogene serine/threonine-protein kinase (Homo sapiens) (UniProt P04049); assay: Selectivity interaction (KinomeScan (DiscoverX)) EUB0000229b RAF1; settings: at 10 µM
[8] = biological target: Cyclin-dependent kinase 18 (Homo sapiens) (UniProt Q07002); assay: Selectivity interaction (KinomeScan (DiscoverX)) EUB0000229b CDK18; settings: at 10 µM
[9] = biological target: T2, Mitogen-activated protein kinase kinase kinase 19 (Homo sapiens) (UniProt Q56UN5); assay: Selectivity interaction (KinomeScan (DiscoverX)) EUB0001049a MAP3K19; settings: at 1 µM
T2 sequence (whole entry): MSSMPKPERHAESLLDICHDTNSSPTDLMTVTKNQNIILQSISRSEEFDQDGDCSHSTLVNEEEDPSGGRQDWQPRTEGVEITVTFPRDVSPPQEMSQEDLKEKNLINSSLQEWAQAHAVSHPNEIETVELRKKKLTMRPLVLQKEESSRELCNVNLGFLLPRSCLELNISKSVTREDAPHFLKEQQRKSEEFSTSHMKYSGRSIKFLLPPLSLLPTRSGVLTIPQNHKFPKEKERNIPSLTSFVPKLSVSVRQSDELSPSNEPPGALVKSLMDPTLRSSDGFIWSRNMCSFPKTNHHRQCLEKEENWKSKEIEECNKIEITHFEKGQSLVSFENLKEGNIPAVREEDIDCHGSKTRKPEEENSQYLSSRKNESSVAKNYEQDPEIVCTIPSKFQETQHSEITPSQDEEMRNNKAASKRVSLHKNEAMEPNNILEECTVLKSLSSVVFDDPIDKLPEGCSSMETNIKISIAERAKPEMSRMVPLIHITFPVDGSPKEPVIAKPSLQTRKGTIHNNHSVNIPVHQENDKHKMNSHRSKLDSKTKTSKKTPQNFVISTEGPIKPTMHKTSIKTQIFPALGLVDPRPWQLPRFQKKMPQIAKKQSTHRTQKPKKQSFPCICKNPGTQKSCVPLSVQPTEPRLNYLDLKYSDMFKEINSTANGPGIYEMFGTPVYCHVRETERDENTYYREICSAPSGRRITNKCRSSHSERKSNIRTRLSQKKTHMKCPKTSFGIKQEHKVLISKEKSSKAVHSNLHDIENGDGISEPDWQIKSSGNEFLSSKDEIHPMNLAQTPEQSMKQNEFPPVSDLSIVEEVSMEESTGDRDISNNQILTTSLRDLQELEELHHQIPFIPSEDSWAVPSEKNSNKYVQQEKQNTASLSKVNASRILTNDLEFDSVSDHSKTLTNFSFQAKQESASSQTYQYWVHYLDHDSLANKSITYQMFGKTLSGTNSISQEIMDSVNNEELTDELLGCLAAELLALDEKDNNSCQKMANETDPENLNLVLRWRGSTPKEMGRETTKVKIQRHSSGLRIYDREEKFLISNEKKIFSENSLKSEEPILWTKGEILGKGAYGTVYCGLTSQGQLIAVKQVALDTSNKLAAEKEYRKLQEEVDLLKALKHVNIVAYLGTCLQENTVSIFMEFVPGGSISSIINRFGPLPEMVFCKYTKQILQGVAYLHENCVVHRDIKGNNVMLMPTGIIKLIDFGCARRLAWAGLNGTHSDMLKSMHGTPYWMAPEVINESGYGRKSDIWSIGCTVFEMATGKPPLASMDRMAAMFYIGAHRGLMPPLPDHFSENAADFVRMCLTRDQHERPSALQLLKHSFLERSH

[10] = biological target: Mitogen-activated protein kinase 3 (Homo sapiens, UniProt P27361); assay: Selectivity interaction (KinomeScan (DiscoverX)) EUB0000695a MAPK3; settings: at 100 nM
Sequence of Mitogen-activated protein kinase 3 (P27361 whole entry): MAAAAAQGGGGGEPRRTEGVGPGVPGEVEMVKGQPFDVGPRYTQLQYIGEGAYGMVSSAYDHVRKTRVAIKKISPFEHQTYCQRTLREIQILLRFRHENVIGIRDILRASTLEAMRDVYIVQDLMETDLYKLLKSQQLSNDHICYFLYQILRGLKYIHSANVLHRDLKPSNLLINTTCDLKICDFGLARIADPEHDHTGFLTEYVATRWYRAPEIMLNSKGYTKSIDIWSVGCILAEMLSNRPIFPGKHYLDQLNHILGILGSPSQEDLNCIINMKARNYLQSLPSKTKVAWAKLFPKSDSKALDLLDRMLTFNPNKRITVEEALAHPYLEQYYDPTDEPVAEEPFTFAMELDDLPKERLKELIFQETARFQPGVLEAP

Sequence of eIF-2-alpha kinase GCN2 (Homo sapiens) (Q9P2K8 whole entry): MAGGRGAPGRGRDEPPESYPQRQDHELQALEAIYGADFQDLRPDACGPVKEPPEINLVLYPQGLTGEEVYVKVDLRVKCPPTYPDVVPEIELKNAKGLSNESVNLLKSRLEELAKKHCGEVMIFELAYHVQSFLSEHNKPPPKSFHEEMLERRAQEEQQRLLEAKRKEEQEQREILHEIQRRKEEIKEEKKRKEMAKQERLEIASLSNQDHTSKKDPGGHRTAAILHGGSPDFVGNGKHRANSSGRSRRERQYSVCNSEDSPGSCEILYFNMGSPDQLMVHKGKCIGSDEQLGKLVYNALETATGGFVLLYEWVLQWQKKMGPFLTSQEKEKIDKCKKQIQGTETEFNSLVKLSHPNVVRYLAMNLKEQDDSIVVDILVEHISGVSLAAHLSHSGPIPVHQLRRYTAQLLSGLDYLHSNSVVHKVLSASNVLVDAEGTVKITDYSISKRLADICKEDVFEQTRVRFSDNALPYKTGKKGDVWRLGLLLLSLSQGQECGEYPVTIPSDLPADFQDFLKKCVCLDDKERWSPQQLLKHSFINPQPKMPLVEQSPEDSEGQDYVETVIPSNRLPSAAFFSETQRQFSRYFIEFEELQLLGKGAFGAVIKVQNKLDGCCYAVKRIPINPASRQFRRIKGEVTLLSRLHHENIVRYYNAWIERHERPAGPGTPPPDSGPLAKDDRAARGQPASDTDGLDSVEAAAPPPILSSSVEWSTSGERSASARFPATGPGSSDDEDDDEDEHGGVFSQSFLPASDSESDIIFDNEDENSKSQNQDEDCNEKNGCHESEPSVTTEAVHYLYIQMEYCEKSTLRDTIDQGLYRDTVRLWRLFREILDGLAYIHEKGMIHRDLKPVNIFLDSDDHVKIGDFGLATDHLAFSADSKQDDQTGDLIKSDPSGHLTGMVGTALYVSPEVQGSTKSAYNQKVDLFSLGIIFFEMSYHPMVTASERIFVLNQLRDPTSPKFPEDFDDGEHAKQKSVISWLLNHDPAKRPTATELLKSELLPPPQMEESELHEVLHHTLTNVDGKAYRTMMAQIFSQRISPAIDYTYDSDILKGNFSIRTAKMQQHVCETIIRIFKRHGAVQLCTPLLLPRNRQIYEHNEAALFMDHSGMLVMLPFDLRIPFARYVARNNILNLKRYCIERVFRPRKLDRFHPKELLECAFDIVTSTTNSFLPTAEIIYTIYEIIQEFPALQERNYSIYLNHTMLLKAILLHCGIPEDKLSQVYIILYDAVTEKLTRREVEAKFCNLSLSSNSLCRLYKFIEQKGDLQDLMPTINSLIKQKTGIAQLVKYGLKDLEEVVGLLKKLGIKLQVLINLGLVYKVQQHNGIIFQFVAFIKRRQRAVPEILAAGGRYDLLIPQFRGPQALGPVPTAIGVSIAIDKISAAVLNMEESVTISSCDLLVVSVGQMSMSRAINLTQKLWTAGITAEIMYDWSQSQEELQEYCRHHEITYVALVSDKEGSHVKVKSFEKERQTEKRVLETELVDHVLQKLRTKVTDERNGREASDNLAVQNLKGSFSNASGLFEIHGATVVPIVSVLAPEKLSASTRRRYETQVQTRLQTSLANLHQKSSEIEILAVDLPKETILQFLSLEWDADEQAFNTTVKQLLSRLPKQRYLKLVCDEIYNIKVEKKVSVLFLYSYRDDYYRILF
Sequence of Protein arginine N-methyltransferase 5 (O14744 whole entry): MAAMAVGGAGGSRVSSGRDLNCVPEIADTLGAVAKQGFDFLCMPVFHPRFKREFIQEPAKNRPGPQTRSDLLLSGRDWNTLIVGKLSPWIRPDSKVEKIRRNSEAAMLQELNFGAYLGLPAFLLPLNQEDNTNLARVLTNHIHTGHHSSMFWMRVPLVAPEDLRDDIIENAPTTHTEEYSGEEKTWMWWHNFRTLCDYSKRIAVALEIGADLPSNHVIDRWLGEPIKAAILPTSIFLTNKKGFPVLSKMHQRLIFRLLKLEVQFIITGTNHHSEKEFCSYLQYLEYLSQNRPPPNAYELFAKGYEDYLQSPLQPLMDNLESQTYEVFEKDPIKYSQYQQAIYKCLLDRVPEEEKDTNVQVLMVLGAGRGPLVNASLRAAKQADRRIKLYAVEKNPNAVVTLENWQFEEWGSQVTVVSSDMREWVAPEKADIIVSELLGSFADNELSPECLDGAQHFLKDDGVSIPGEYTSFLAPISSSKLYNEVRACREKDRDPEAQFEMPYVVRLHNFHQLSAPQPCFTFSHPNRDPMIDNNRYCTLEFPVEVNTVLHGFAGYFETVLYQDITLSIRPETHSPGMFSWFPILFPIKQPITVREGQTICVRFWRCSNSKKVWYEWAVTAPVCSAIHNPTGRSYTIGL
Sequence of Eukaryotic translation initiation factor 2-alpha kinase 1 (Homo sapiens) (Q9BQI3 whole entry): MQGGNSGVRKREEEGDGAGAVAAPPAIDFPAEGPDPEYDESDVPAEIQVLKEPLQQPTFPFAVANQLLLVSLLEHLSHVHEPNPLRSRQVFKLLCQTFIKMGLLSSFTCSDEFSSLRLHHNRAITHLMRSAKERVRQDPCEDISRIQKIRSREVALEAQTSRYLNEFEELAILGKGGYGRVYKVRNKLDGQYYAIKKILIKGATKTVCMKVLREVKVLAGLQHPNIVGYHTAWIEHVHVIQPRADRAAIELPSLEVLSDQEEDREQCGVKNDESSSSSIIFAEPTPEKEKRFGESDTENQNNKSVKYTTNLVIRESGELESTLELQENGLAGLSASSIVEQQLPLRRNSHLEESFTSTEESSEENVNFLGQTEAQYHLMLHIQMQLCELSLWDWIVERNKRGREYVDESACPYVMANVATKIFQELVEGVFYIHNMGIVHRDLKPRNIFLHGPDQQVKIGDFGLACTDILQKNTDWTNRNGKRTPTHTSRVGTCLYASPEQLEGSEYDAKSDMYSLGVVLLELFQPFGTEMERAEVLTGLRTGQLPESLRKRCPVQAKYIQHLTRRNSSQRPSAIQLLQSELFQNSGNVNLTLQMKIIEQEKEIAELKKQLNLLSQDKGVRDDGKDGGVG
Sequence of Activated CDC42 kinase 1 (Q07912 whole entry): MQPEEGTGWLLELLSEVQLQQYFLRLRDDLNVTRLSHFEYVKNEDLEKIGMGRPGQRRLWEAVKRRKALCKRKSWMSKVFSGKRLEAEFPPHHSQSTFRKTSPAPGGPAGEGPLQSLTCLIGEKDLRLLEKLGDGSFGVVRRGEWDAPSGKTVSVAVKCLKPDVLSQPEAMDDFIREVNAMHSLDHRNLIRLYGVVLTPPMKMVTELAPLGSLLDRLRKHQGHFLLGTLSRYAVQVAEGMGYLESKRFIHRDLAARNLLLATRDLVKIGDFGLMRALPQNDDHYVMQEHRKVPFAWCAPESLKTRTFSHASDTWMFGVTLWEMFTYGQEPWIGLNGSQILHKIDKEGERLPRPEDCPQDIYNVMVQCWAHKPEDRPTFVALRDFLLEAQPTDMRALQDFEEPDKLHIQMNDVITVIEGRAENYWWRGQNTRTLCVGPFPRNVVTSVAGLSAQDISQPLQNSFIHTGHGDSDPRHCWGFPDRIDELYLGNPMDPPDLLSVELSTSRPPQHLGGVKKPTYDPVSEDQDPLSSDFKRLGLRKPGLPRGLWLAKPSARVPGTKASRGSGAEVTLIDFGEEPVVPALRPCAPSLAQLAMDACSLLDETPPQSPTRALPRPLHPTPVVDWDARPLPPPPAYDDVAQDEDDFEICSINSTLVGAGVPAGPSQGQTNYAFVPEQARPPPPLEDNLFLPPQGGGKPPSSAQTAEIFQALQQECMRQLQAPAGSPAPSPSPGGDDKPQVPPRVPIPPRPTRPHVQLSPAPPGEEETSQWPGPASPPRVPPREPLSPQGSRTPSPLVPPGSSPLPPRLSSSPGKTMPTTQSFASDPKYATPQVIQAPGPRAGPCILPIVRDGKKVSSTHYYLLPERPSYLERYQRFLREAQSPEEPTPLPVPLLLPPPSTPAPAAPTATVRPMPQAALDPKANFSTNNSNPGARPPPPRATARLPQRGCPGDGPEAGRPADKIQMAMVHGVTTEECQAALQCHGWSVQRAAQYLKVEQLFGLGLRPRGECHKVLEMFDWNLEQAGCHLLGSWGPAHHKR
Sequence of RAF proto-oncogene serine/threonine-protein kinase (Homo sapiens) (P04049 whole entry): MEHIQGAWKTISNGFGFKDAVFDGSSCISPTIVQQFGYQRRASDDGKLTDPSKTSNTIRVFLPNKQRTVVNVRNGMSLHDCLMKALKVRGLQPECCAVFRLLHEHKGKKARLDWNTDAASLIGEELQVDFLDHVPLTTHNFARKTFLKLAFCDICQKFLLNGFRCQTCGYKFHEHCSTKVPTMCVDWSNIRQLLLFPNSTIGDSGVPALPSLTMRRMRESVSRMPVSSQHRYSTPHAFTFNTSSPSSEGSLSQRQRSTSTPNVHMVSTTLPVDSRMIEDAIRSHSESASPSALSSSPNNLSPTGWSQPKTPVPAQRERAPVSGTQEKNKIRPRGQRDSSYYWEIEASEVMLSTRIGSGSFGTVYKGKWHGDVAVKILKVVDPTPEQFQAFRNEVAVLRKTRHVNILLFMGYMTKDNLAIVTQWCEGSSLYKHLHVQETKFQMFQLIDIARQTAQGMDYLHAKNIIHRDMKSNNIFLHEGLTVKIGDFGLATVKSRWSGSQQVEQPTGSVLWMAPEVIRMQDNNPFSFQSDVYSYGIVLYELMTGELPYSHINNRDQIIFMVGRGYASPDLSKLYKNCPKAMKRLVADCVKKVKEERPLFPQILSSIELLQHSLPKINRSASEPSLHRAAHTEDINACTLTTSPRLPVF

SMILES: CN(C)C/C=C/C(=O)Nc1ccc(C(=O)N2CCCC(Nc3ncc(Cl)c(-c4c[nH]c5ccccc45)n3)C2)cc1 (stereo unspecified)
- % of control [1]: 85%
- % of control [2]: 84%

SMILES: CNC(=O)Nc1ccc(-c2nc(N3CC4CCC(C3)O4)c3cnn(C4CCC5(CC4)OCCO5)c3n2)cc1
- % of control [3]: 83%

- % activity [4]: > 90%
SMILES: CNCCN1CCC(c2cc(CN(C)C(=O)c3cccc(Oc4ccccc4)c3)ccn2)CC1

- % of inhibition [5]: 2%
SMILES: CC[C@@H]1[C@H](F)C(=O)N[C@@H]1COc1nccc2cc(C(N)=O)c(OC)cc12 [ZIMLOVISERTIB]

- pIC50 (Activated CDC42 kinase 1): < 5.00
SMILES: CCc1cccc(CC)c1NC(=O)c1nn(C)c2c1CCc1cnc(Nc3ccc(C(=O)NC4CCN(C)CC4)cc3OC(F)(F)F)nc1-2

SMILES: COc1cc(N(C)c2ccnc3ccc(C(F)(F)F)cc23)cc(OC)c1OC
- % binding [6]: 74%
- % binding [7]: 91%
- % binding [8]: 91%

SMILES: COc1cc(Nc2nc(C)cc(-c3cnn4nc(OC)ccc34)n2)cc(C(F)(F)F)c1
- % of control [9]: 75%

SMILES: Cc1cc(F)c(C(=O)Nc2cccc(-c3nncn3C(C)C)n2)cc1-n1cnc(C2CC2)c1
- % of control [10]: 97%
